Assay results reported in patent US20150159192A1, “STERILIZATION INDICATORS INCLUDING A NEUTRALIZER AND METHODS” (3M INNOVATIVE PROPERTIES COMPANY, priority 2010, published 2015).
Where two headings read alike, the source gives them in different places.

B1: Catalase (protein, UniProt P00432 2-527, looked up)
Catalase: ADNRDPASDQMKHWKEQRAAQKPDVLTTGGGNPVGDKLNSLTVGPRGPLLVQDVVFTDEMAHFDRERIPERVVHAKGAGAFGYFEVTHDITRYSKAKVFEHIGKRTPIAVRFSTVAGESGSADTVRDPRGFAVKFYTEDGNWDLVGNNTPIFFIRDALLFPSFIHSQKRNPQTHLKDPDMVWDFWSLRPESLHQVSFLFSDRGIPDGHRHMNGYGSHTFKLVNANGEAVYCKFHYKTDQGIKNLSVEDAARLAHEDPDYGLRDLFNAIATGNYPSWTLYIQVMTFSEAEIFPFNPFDLTKVWPHGDYPLIPVGKLVLNRNPVNYFAEVEQLAFDPSNMPPGIEPSPDKMLQGRLFAYPDTHRHRLGPNYLQIPVNCPYRARVANYQRDGPMCMMDNQGGAPNYYPNSFSAPEHQPSALEHRTHFSGDVQRFNSANDDNVTQVRTFYLKVLNEEQRKRLCENIAGHLKDAQLFIQKKAVKNFSDVHPEYGSRIQALLDKYNEEKPKNAVHTYVQHGSHLSAREKANL
notes: enzyme neutralizer from Sigma-Aldrich, 226 units added per vial

Assays:
[1] = tested on: Geobacillus stearothermophilus spores; experiment: Hydrogen peroxide neutralizers in BI recovery medium, spore outgrowth after STERRAD 100S cycle; assay type: cell-based; design: key to Negative Control / Positive Control: Pos*/Neg*—positive (yellow) or negative (purple) was discolored by the additive; Pos*/Neg*—positive (yellow) or negative (purple) was discolored by the additive; Neg^3—positive control did not grow
Description: This example compares the neutralization effectiveness of different additives in the biological indicators recovery medium. The additives (neutralizers) were added to the recovery media used in the 3M ATTEST 1292 Rapid Readout Biological Indicators. Catalase, L-cysteine, sodium thiosulfate, D-ethionine, S-methyl-cysteine, S-benzyl-L-cysteine, thiodiproprionic acid, potassium ferricyanide and sodium pyruvate were all purchased from Sigma-Aldrich Corporation, St. Louis, Mo. Isoascorbic acid was purchased from Alfa Aesar, Ward Hill, Mass. Methionine was purchased from Calbiochem, EMD Chemicals, Gibbstown, N.J.
3M ATTEST 1292 Biological Indicators were steam sterilized to kill the existing spore population. Two sets of 3M ATTEST 1292 BIs were evaluated, one set contained the paper spore carrier used in the commercially available indicator. In the second set, the spore carrier was replaced with fiberglass strips, commercially available as […] 230-11.0 (Crane &Co., Inc., Dalton, Mass.). The steam sterilized BIs were then exposed in a STERRAD 100S hydrogen peroxide/plasma sterilization cycle. Immediately following the hydrogen peroxide/plasma sterilization, the BIs containing media with and without additives were inoculated with less than 100 Geobacillus stearothermophilus spores recovered from a 3M ATTEST 1292 BI spore strip. The indicators were incubated at 60° C. (+/−2° C.) for 7 days and observed for growth, indicated by a color change from purple to yellow. A positive and negative control was tested for each additive. The positive controls were steam sterilized and inoculated with less than 100 spores. The negative controls were steam sterilized.

[2] = tested on: Geobacillus stearothermophilus spores; experiment: Remediation of residual hydrogen peroxide, spore recovery method with sodium thiosulfate; assay type: cell-based
[3] = additive 1 g/l, CRANEGLAS fiberglass carrier, 7 days
[4] = additive 1 g/l, paper spore carrier, 7 days
[5] = additive 1 g/l, steam sterilized and inoculated with less than 100 spores, no H2O2
[6] = additive 1 g/l, steam sterilized, not inoculated
[7] = additive 2 g/l, CRANEGLAS fiberglass carrier, 7 days
[8] = additive 2 g/l, paper spore carrier, 7 days
[9] = additive 2 g/l, steam sterilized and inoculated with less than 100 spores, no H2O2
[10] = additive 2 g/l, steam sterilized, not inoculated
[11] = additive 4 g/l, CRANEGLAS fiberglass carrier, 7 days
[12] = additive 4 g/l, paper spore carrier, 7 days
[13] = additive 4 g/l, steam sterilized and inoculated with less than 100 spores, no H2O2
[14] = additive 4 g/l, steam sterilized, not inoculated
[15] = additive 8 g/l, CRANEGLAS fiberglass carrier, 7 days
[16] = additive 8 g/l, paper spore carrier, 7 days
[17] = additive 8 g/l, steam sterilized and inoculated with less than 100 spores, no H2O2
[18] = additive 8 g/l, steam sterilized, not inoculated

Row | Molecule | No. Pos. CRANEGLAS [1, 3] | No. Pos. Paper [1, 4] | Positive Control [1, 5] | Negative Control [1, 6] | No. Pos. CRANEGLAS [1, 7] | No. Pos. Paper [1, 8] | Positive Control [1, 9] | Negative Control [1, 10] | No. Pos. CRANEGLAS [1, 11] | No. Pos. Paper [1, 12] | Positive Control [1, 13] | Negative Control [1, 14] | No. Pos. CRANEGLAS [1, 15] | No. Pos. Paper [1, 16] | Positive Control [1, 17] | Negative Control [1, 18] | further results
1 | CCSCC[C@@H](N)C(=O)O [D-ethionine] | 4 | 2 | Pos | Neg | 4 | 0 | Pos | Neg | 4 | 2 | Pos | Neg | 4 | 3 | Pos | Neg | –
2 | O=C1O[C@H]([C@H](O)CO)C(O)=C1O [Isoascorbic acid] | 0 | 3 | Pos | Neg | 4 | 3 | Pos | Neg* | 4 | 3 | Pos* | Neg* | 4 | 3 | Pos* | Neg* | Additive level that effectively neutralized the paper carriers ([1]; paper carriers): 1 gram per liter
3 | N[C@@H](CS)C(=O)O [L-cysteine] | 4 | 1 | Pos | Neg | 4 | 0 | Pos | Neg | 4 | 3 | Pos | Neg | 4 | 3 | Pos | Neg | –
4 | CSCC[C@H](N)C(=O)O [Methionine] | 4 | 0 | Pos | Neg | 4 | 0 | Pos | Neg | 4 | 3 | Pos | Neg | 4 | 3 | Pos | Neg | –
5 | N[C@@H](CSCc1ccccc1)C(=O)O [S-benzyl-L-cysteine] | 4 | 0 | Pos | Neg | 4 | 0 | Pos | Neg | 4 | 0 | Pos | Neg | – | – | – | – | –
6 | CSC[C@H](N)C(=O)O [S-methyl-cysteine] | 4 | 0 | Pos | Neg | 4 | 0 | Pos | Neg | 4 | 2 | Pos | Neg | 4 | 3 | Pos* | Neg | –
7 | CC(=O)C(=O)[O-].[Na+] [Sodium pyruvate, sodium pyruvate] | – | 0 | Pos | Neg | – | 2 | Pos | Neg | – | 3 | Pos | Neg | – | 3 | Pos | Neg | –
8 | O=S([O-])([O-])=S.[Na+].[Na+] [Sodium thiosulfate, sodium thiosulfate] | – | – | – | – | – | – | – | – | – | – | – | – | – | – | – | – | Spore recovery ability (in words) [2]: good spore recovery agent; Additive level that effectively neutralized the paper carriers [1]: 1 gram per liter; Negative Control [1]: Neg and Neg*; No. Pos. CRANEGLAS [1]: 4; No. Pos. Paper [1]: 3; Positive Control [1]: Pos
9 | O=C(O)CCSCCC(=O)O [Thiodiproprionic acid, thiodiproprionic acid] | 1 | 0 | Pos | Neg | 3 | 0 | Neg^3 | Neg | 3 | 0 | Neg^3 | Neg | 3 | 3 | Pos | Neg | –
10 | B1 | – | – | – | – | – | – | – | – | – | – | – | – | – | – | – | – | Neutralization of residual hydrogen peroxide (in words) [1]: sufficiently neutralized; No. Pos. CRANEGLAS ([1]; 226 units added per vial, CRANEGLAS fiberglass carrier, 7 days): 4; No. Pos. Paper ([1]; 226 units added per vial, paper spore carrier, 7 days): 3; Positive Control ([1]; 226 units added per vial, steam sterilized and inoculated): Pos; Negative Control ([1]; 226 units added per vial, steam sterilized, not inoculated): Neg
